Experimental data as given in publication PMC7587356, “High-Throughput Screening for Inhibitors of the SARS-CoV-2 Protease Using a FRET-Biosensor” (Molecules, 2020).
Where two headings read alike, the source gives them in different places.

Target: SARS-CoV-2 3CLpro (Severe acute respiratory syndrome coronavirus 2, UniProt P0DTD1)
Assay: biochemical
Format: biochemical
Design: Replicate_1 / Replicate_2 / mean / mean (LOPAC_screen_w_protease): unit not given here
[1] = LOPAC1280 primary screen with protease, 5 µM compound, mean of two replicates
[2] = LOPAC1280 primary screen with protease, 5 µM compound, replicate 1
[3] = LOPAC1280 primary screen with protease, 5 µM compound, replicate 2
[4] = sheet LOPAC_screen_w_protease, LOPAC1280 at 5 µM, mean of two replicates
[5] = sheet LOPAC_screen_w_protease, LOPAC1280 at 5 µM, replicate 1
[6] = sheet LOPAC_screen_w_protease, LOPAC1280 at 5 µM, replicate 2
[7] = sheet LOPAC_screen_w_protease, LOPAC1280 primary screen at 5 µM, with protease, mean of the two replicates
[8] = sheet LOPAC_screen_w_protease, LOPAC1280 primary screen at 5 µM, with protease, replicate 1
[9] = sheet LOPAC_screen_w_protease, LOPAC1280 primary screen at 5 µM, with protease, replicate 2
[10] = sheet LOPAC_screen_w_protease, primary screen at 5 µM, mean of two replicates
[11] = sheet LOPAC_screen_w_protease, primary screen at 5 µM, replicate 1
[12] = sheet LOPAC_screen_w_protease, primary screen at 5 µM, replicate 2
[13] = LOPAC1280 primary screen with protease, 5 µM compound, mean of the two replicates
[14] = sheet LOPAC_screen_w_protease, LOPAC1280 primary screen with protease, 5 µM compound, mean of the two replicates
[15] = sheet LOPAC_screen_w_protease, LOPAC1280 primary screen with protease, 5 µM compound, replicate 1
[16] = sheet LOPAC_screen_w_protease, LOPAC1280 primary screen with protease, 5 µM compound, replicate 2

SMILES: C=CCn1c(=O)c2c(nc(-c3ccc(S(=O)(=O)O)cc3)n2C)n(C)c1=O
- mean (LOPAC_screen_w_protease) [1]: 1.718
- Replicate_1 (LOPAC_screen_w_protease) [2]: 2.434
- Replicate_2 (LOPAC_screen_w_protease) [3]: 1.002

SMILES: Cl.NC1(C(=O)O)CC1
- mean [4]: 1.084
- Replicate_1 [5]: 2.432
- Replicate_2 [6]: -0.2629

SMILES: COc1ccccc1N1CCNCC1.Cl
- mean [4]: 0.9162
- Replicate_1 [5]: 1.248
- Replicate_2 [6]: 0.5839

SMILES: Cl.Cl.Clc1cccc(N2CCNCC2)c1
- mean [7]: 0.4258
- Replicate_1 [8]: 0.3435
- Replicate_2 [9]: 0.5081

SMILES: CC1CNCCN1S(=O)(=O)c1cccc2cnccc12.Cl.Cl (centres unmarked)
- mean (LOPAC screen with protease) [10]: 12.1111
- Replicate_1 (LOPAC screen with protease) [11]: 12.4365
- Replicate_2 (LOPAC screen with protease) [12]: 11.7856

SMILES: Cl.N=C(N)NC(=N)Nc1cccc(Cl)c1
- mean (LOPAC_screen_w_protease) [13]: 1.751
- Replicate_1 (LOPAC_screen_w_protease) [2]: 2.329
- Replicate_2 (LOPAC_screen_w_protease) [3]: 1.173

SMILES: C[N+]1(C)CCN(c2ccccc2)CC1.[I-]
- mean (LOPAC screen with protease) [10]: 7.007
- Replicate_1 (LOPAC screen with protease) [11]: 5.351
- Replicate_2 (LOPAC screen with protease) [12]: 8.6627

SMILES: CCCc1c(-c2ccc(O)cc2)nn(-c2ccc(O)cc2)c1-c1ccc(O)cc1
- mean [4]: 1.246
- Replicate_1 [5]: 3.0422
- Replicate_2 [6]: -0.5503

SMILES: Cl.NCC(O)C1CCCCCCC1 (centres unmarked)
- mean [4]: 1.1388
- Replicate_1 [5]: 2.0547
- Replicate_2 [6]: 0.2229

SMILES: CSc1nc(N)c2ncn([C@@H]3O[C@H](COP(=O)(O)OP(=O)(O)O)[C@@H](O)[C@H]3O)c2n1.[Na].[Na].[Na]
- mean [14]: 4.674
- Replicate_1 [15]: 4.609
- Replicate_2 [16]: 4.739

SMILES: Br.Br.N=C(N)SCCN
- mean (LOPAC_screen_w_protease) [13]: 2.032
- Replicate_1 (LOPAC_screen_w_protease) [2]: 2.956
- Replicate_2 (LOPAC_screen_w_protease) [3]: 1.108

SMILES: C[N+](C)(C)CCC(=O)c1cccc2ccccc12.[I-]
- mean (LOPAC screen with protease) [10]: 102.503
- Replicate_1 (LOPAC screen with protease) [11]: 102.129
- Replicate_2 (LOPAC screen with protease) [12]: 102.878

SMILES: O=[N+]([O-])c1ccc(O[C@@H]2O[C@H](CO)[C@@H](O)[C@H](O)[C@H]2F)c([N+](=O)[O-])c1
- mean [7]: 0.5921
- Replicate_1 [8]: 1.883
- Replicate_2 [9]: -0.6983

SMILES: NC(=O)COc1c(F)cc(SCCNS(=O)(=O)c2ccccc2)cc1F
- mean (sheet LOPAC_screen_w_protease, LOPAC1280 primary screen at 5 µM, with protease, mean of two replicates): -1.413
- Replicate_1 [8]: -1.082
- Replicate_2 [9]: -1.744

SMILES: Cc1nnc2ccc(-c3cccc(C(F)(F)F)c3)nn12
- mean [14]: 4.5531
- Replicate_1 [15]: 2.841
- Replicate_2 [16]: 6.265

SMILES: CN1C2CCC1CC(OC(=O)c1c[nH]c3ccccc13)C2.Cl (centres unmarked)
- mean [7]: 0.5358
- Replicate_1 [8]: 1.053
- Replicate_2 [9]: 0.01899

SMILES: C[C@]12CC[C@@H](O)C[C@@H]1CC[C@@H]1[C@@H]2CC[C@]2(C)[C@@H](C(=O)CO)CC[C@@H]12
- mean [14]: 5.219
- Replicate_1 [15]: 2.641
- Replicate_2 [16]: 7.796

SMILES: Cl.NCCc1ccc(S(=O)(=O)F)cc1
- mean [7]: 0.6027
- Replicate_1 [8]: 1.03
- Replicate_2 [9]: 0.1751

SMILES: CN1C2CCC1CC(OC(c1ccccc1)c1ccc(Cl)cc1)C2.Cl (centres unmarked)
- Replicate_1 (LOPAC_screen_w_protease): 2.149
- Replicate_2 (LOPAC_screen_w_protease): 0.9226
- mean (LOPAC_screen_w_protease): 1.536

SMILES: O=C(O)c1cc([N+](=O)[O-])ccc1NCCCc1ccccc1
- Replicate_1 (LOPAC screen with protease): 5.784
- Replicate_2 (LOPAC screen with protease): 7.243
- mean (LOPAC screen with protease): 6.5136

SMILES: COc1ccc2[nH]c3c(c2c1)CCNC3
- mean [7]: 0.4216
- Replicate_1 [8]: 0.4542
- Replicate_2 [9]: 0.3889

SMILES: Oc1cc(-c2ccccc2)nc2nc(Cl)ccc12
- mean (LOPAC_screen_w_protease) [13]: 1.995
- Replicate_1 (LOPAC_screen_w_protease) [2]: 0.8933
- Replicate_2 (LOPAC_screen_w_protease) [3]: 3.097

SMILES: Nc1ncnc2c1c(-c1ccc(Oc3ccccc3)cc1)cn2C1CCCC1
- mean [7]: 0.6123
- Replicate_1 [8]: 0.3054
- Replicate_2 [9]: 0.9192

SMILES: COCc1nc2c([nH]1)c(=O)n(C)c(=O)n2CC(C)C
- mean [14]: 5.36
- Replicate_1 [15]: 6.304
- Replicate_2 [16]: 4.4152

SMILES: Cl.Nc1c2c(nc3ccccc13)CCCC2
- Replicate_1: 1.645
- Replicate_2: 0.8036
- mean: 1.2241

SMILES: CC1CCCC=CC2CC(O)CC2C(O)C=CC(=O)O1 (centres unmarked)
- mean (LOPAC_screen_w_protease) [1]: 1.348
- Replicate_1 (LOPAC_screen_w_protease) [2]: 0.7493
- Replicate_2 (LOPAC_screen_w_protease) [3]: 1.9466

SMILES: Br.COc1ccc2c(c1)[C@]13CCCC[C@@H]1[C@H](C2)N(C)CC3.O
- mean (LOPAC_screen_w_protease) [13]: 1.973
- Replicate_1 (LOPAC_screen_w_protease) [2]: 1.427

SMILES: O=C(O)CN(CCOCCOCCN(CC(=O)O)CC(=O)O)CC(=O)O
- Replicate_1: 4.424
- Replicate_2: 0.4872
- mean: 2.456

SMILES: NC(N)=Nc1ccc2[nH]c3c(c2c1)C[C@@]1(O)[C@H]2Cc4ccc(O)c5c4[C@@]1(CCN2CC1CC1)[C@H]3O5.O=C(O)C(F)(F)F.O=C(O)C(F)(F)F
- mean [14]: 5.687
- Replicate_1 [15]: 7.859
- Replicate_2 [16]: 3.515

SMILES: Cl.O[Si](CCCN1CCCCC1)(c1ccc(F)cc1)C1CCCCC1 (centres unmarked)
- mean [4]: 1.239
- Replicate_1 [5]: 2.5476
- Replicate_2 [6]: -0.06894

SMILES: C[C@@H](N)Cc1cnc[nH]1.Cl.Cl
- Replicate_1: 2.14
- Replicate_2: -0.08051
- mean: 1.03

SMILES: CCc1c(C(=O)OC)ncc2[nH]c3cc(OC)c(OC)cc3c12
- mean (LOPAC_screen_w_protease) [13]: 2.118
- Replicate_1 (LOPAC_screen_w_protease) [2]: 4.217
- Replicate_2 (LOPAC_screen_w_protease) [3]: 0.01945

SMILES: Cl.NCCCCNS(=O)(=O)c1ccc2c(Cl)cccc2c1
- mean [7]: 0.6799
- Replicate_1 [8]: 0.88
- Replicate_2 [9]: 0.4798

SMILES: Cl.O=C(CCCN1CCC2(CC1)C(=O)N(CCc1ccc(N=C=S)cc1)CN2c1ccccc1)c1ccc(F)cc1
- mean [14]: 5.051
- Replicate_1 [15]: 5.654
- Replicate_2 [16]: 4.448

SMILES: CNCCc1c[nH]c2ccc(O)cc12.O=C(O)C(=O)O
- mean [14]: 5.527
- Replicate_1 [15]: 5.7
- Replicate_2 [16]: 5.354

SMILES: Cc1ccc(S(=O)(=O)N[C@@H](Cc2ccccc2)C(=O)CCl)cc1
- mean (LOPAC screen with protease) [10]: 61.4515
- Replicate_1 (LOPAC screen with protease) [11]: 61.5523
- Replicate_2 (LOPAC screen with protease) [12]: 61.3507

SMILES: CCCCCCN(CCCCCC)C(=O)Cc1c(-c2ccc(F)cc2)[nH]c2ccccc12
- mean [14]: 4.628
- Replicate_1 [15]: 5.9351
- Replicate_2 [16]: 3.32

SMILES: CC(COc1ccc(/C=C/c2ccccc2)cc1)[N+](C)(C)C.[I-] (centres unmarked)
- mean [14]: 5.814
- Replicate_1 [15]: 7.703
- Replicate_2 [16]: 3.926

SMILES: Cc1ccc(S(=O)(=O)N[C@@H](CCCCN)C(=O)CCl)cc1.Cl
- mean (LOPAC screen with protease) [10]: 20.7427
- Replicate_1 (LOPAC screen with protease) [11]: 21.9131
- Replicate_2 (LOPAC screen with protease) [12]: 19.5724

SMILES: CC(Cc1ccc(O)c(O)c1)C(C)Cc1ccc(O)c(O)c1 (centres unmarked)
- mean (LOPAC screen with protease) [10]: 97.9088
- Replicate_1 (LOPAC screen with protease) [11]: 97.7665
- Replicate_2 (LOPAC screen with protease) [12]: 98.0511

SMILES: Cl.NOCC(=O)O.NOCC(=O)O
- mean [4]: 1.195
- Replicate_1 [5]: 1.0596
- Replicate_2 [6]: 1.33

SMILES: Br.CCCN1CCc2cc(O)cc3c2[C@H]1Cc1ccc(O)c(O)c1-3
- mean (LOPAC screen with protease) [10]: 94.9167
- Replicate_1 (LOPAC screen with protease) [11]: 94.651
- Replicate_2 (LOPAC screen with protease) [12]: 95.1824

SMILES: Br.CN1CCc2cc(O)cc3c2[C@H]1Cc1ccc(O)c(O)c1-3
- mean (LOPAC screen with protease) [10]: 100.809
- Replicate_1 (LOPAC screen with protease) [11]: 99.6837
- Replicate_2 (LOPAC screen with protease) [12]: 101.934

SMILES: N[C@H](C(=O)O)[C@H]1C[C@@H]1C(=O)O
- Replicate_1: 1.266
- Replicate_2: 1.079
- mean: 1.172
